In patent US5428031A, “Methods of treating cardiac arrhythmia” (priority 1993, dated 1995):

Key:
[1] = biological target: T1, IKs (slowly activating delayed rectifier K+ current) (Cavia porcellus, UniProt O70344); experiment: cell-based; type: cell-based, guinea pig
T1 construct: Guinea pig ventricular myocytes were isolated; endogenous in cells; host or cells: isolated guinea pig ventricular myocytes
Experimental: Current amplitude is measured as the difference from the initial instantaneous current level following the capacitance discharge after changing the transmembrane voltage from -50 mV to +50 mV, to the current level at the end of the 1 second voltage step. Normally, an increase in the current amplitude occurs as a function of time and voltage during depolarization of the cardiac cell membrane and this increasing current has been defined as the delayed rectifier K^+ current (IK). […] IKs current occurs as a consequence of time- and voltage-dependent opening of ionic channels or pores in the cardiac cell membrane that allow the relatively selective flow of potassium ions (K^+) from the inside to the outside of the cell, that is, down the voltage and concentration gradient for K^+ ions that is inherent in cardiac cells. Thus, block of the IKs current ultimately reflects block of certain ion channels or pores in the cardiac cell membrane. However, the single pores or channels thought to underlie the IKs current have yet to be measured or identified at the single channel level.
Guinea pig ventricular myocytes were isolated using a modification of the procedure described by Mitra R and Morad M., "A Uniform Enzymatic Method for Dissociation of Myocytes from Hearts and Stomachs of Nertilorates", Am. J. Physiol. […] Excised hearts were perfused through the aorta (retrograde fashion) at a rate of 10 ml/min with oxygenated, warmed (37° C.) solutions described below. […] The head was then perfused with the same nominally Ca^2+ -free solution containing 150 units/ml Type II collagenase (Worthington) and 0.5 units/ml Type XIV protease (Sigma) for 8 minutes. This perfusate was followed by a Tyrode's solution containing 0.2 mM CaCl2 (without enzymes) for 5 minutes. The digested ventricles were cut into small pieces and gently shaken until cells were visibly dispersed. The cells were stored at room temperature until use, within 8 hours after isolation.
The suction microelectrode technique described by Giles, W. R. and Shibata, E. F., "Voltage clamp of bull-frog cardiac pacemaker cells: a quantitative, analysis of potassium currents". J. Physiol. […] Microelectrodes were made by using a two stage puller from square bore (1.0 mm o.d.) borosilicate capillary tubing. […] After establishing whole-cell recording mode, negative pressure was maintained on the pipette using a 1 ml gas-tight syringe attached via air tight tubing to the suction port of the microelectrode holder. This minimized dialysis of the cell with the pipette solution.
To record K^+ currents, the cells were bathed in a Ca^2+ -free Tyrode's :solution containing […] nisoldipine. […] A List EPC-7 clamp amplifier was used to voltage clamp the isolated cells. […] A variety of voltage pulse protocols were used to measure Ca^2+ current and three types of K^+ currents: inward rectifier (IK1), rapidly activating delayed rectifier (IKr) and the slowly activating delayed rectifier (IKs). Sanguinetti M. C. and Jurkiewicz, N. K., "Two components of cardiac delayed rectifier K^+ current: Differential sensitivity to block by Class III antiarrhythmic agents". […] Data was analyzed as % block from control membrane currents.
Nisoldipins was prepared as a 4 mM stock solution in polyethylne glycol 200. Compounds tested in this series were prepared as 10 mM stock solutions in polyethylene glycol 400 or dimethyl sulfoxide.

conscious dogs = experiment: electrocardiographic QT interval in conscious dogs, oral; type: in vivo, dog
Experimental: Trained, female mongrel dogs, in the weight range of 8 to 16 kg and instruimented with chronic arterial access ports, were deprived of food 18 to 24 hours prior to the study. At test time, the dog was placed in an Alice King Chatham nylon mesh sling for light restraint. Four Grass Instrument Co. Type E2 Platinum Subdermal Electrodes were affixed to the limbs of the dog and connected to a Hewlett-Packard 4700A Cardiograph multi-lead electrocardiogram (ECG) recorder. After approximately a 30-minute stabilization period, one or two pretreatment Lead II ECG tracings were taken over approximately a 30-second interval. Dogs were then dosed via gavage with labrafil (vehicle) or test compound. The volume, administered was 2.0 ml/kg followed by a 15 ml tap-water flush. Lead II ECG recordings were obtained at 15, 30, and 60 minutes and every 30 minutes thereafter for five hours post-drug administration. Dogs were also monitored for blood pressure changes via a Modular Instruments data acquisition system and transducer connected to the arterial access port. Final ECG traces were taken at approximately 24 hours post-treatment. Average QT interval lengths were determined for each time point and QTc values were calculated to correct for variations in heart rate (QTc =QT/√R-R).

SMILES | IC50 [1] [nM] | block of IKs ([1]; 5 μM) | other ECG or cardiovascular effects (conscious dogs) | prolongation of ECG QT interval (conscious dogs) | selective block of IKs ([1]; selective: 50% block of IKs at 1 μM or less and at least 10 fold lower than for IKr and/or IK1)
Cc1cccc(NC(=O)N[C@@H]2N=C(c3ccccc3)c3ccccc3N(C)C2=O)c1 [Compound 4, (R)-N-(2,3-dihydro-1-methyl-2-oxo-5-phenyl-1H-1,4-benzodiazepin-3-yl)-N'-(3-methylphenyl)urea] | 215 | Complete block | no other ECG or cardiovascular effects | dose-related prolongation of ECG QT interval | –
CN1C(=O)[C@H](NC(=O)/C=C/c2ccc(Cl)cc2Cl)N=C(c2ccccc2)c2ccccc21 [Example 26, E-(+)-N-[(3R)-2,3-Dihydro-1-methyl-2-oxo-5-phenyl-1H-1,4-benzo-diazepin-3-yl]-3-(2,4-dichlorophenyl)-2-propenamide] | – | – | – | – | selective blocker of IKs
